A short description of series [1]: Wettability study to define limits of cabotegravir suspension strength. Format: physicochemical. Here is the method: Wettability of Cabotegravir in 38 mg/mL P338, 35 mg/mL PEG3350, and 20 mg/mL mannitol was assessed to estimate the approximate concentration limit for Cabotegravir suspension in this vehicle. This was performed by adding increasing amounts of Cab to 5 g of vehicle until a gross change in coarse suspension properties was observed.

The subject of the next series is HIV-1 strains. The conditions noted are these: integrase strand transfer inhibitor; background statement; cited from earlier work.

The text below walks through data of patent publication US20230045509A1, “PHARMACEUTICAL COMPOSITIONS COMPRISING CABOTEGRAVIR” (ViiV Healthcare Company, priority 2019, published 2023).

Consider `C[C@H]1CO[C@@H]2Cn3cc(C(=O)NCc4ccc(F)cc4F)c(=O)c(O)c3C(=O)N12` [Cabotegravir, N-((2,4-Difluorophenyl)methyl)-6-hydroxy-3-methyl-5,7-dioxo-2,3,5,7,11,11a hexahydro(1,3)oxazolo(3,2-a)pyrido(1,2-d)pyrazine-8-carboxamide], for which the Gross viscosity entry in series [1] (580† mg/mL Cabotegravir (calculated using approximated densities) in same vehicle) is recorded as “Boundary of thickening”; in series [1] (600† mg/mL Cabotegravir (calculated using approximated densities) in same vehicle), “Thicker, but flowable”; in series [1] (635† mg/mL Cabotegravir (calculated using approximated densities) in same vehicle), “Slightly paste-like”. For the same compound, the “upper boundary of Cabotegravir solid suspension concentration” value in series [1] (vehicle 38 mg/mL P338, 35 mg/mL PEG3350, 20 mg/mL mannitol) is recorded as no more than 600 mg/mL. Moreover, the potency entry in the series on HIV-1 strains is given as “subnanomolar potency”.
